Assay results taken from paper PMC10067855, “Sialidases and fucosidases of Akkermansia muciniphila are crucial for growth on mucin and nutrient sharing with mucus-associated gut bacteria” (Nature Communications, 2023).

What was measured:
AmGH29C = target: T1, AmGH29C (Akkermansia muciniphila, UniProt B2UNB9); experiment: inhibition of pNPFuc hydrolysis, A405; format: biochemical
T1 construct: gene Amuc_0392; mature peptide lacking the signal peptide
T1 sequence (B2UNB9 41-709): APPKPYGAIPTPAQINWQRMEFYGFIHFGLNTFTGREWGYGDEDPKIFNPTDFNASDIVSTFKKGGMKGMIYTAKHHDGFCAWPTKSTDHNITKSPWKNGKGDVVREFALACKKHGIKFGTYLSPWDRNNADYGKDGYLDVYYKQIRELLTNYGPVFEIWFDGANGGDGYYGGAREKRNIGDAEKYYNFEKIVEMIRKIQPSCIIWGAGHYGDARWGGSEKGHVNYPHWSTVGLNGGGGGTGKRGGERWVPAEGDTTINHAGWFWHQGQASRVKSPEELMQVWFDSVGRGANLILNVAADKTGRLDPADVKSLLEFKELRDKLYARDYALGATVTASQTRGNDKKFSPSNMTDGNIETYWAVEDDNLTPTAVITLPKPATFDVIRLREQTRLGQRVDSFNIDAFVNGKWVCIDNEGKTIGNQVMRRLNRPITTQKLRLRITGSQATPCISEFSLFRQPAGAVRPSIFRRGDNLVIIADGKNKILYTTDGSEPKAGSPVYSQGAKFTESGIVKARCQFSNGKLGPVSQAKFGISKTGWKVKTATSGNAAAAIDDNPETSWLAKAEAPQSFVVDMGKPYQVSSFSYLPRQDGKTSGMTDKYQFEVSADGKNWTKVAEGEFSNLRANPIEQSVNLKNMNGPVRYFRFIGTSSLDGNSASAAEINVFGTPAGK

AmGH29D = target: T2, AmGH29D (Akkermansia muciniphila, UniProt B2UQE4); experiment: inhibition of pNPFuc hydrolysis, A405; format: biochemical
T2 construct: gene Amuc_0846; mature peptide lacking the signal peptide
T2 sequence (B2UQE4 25-704): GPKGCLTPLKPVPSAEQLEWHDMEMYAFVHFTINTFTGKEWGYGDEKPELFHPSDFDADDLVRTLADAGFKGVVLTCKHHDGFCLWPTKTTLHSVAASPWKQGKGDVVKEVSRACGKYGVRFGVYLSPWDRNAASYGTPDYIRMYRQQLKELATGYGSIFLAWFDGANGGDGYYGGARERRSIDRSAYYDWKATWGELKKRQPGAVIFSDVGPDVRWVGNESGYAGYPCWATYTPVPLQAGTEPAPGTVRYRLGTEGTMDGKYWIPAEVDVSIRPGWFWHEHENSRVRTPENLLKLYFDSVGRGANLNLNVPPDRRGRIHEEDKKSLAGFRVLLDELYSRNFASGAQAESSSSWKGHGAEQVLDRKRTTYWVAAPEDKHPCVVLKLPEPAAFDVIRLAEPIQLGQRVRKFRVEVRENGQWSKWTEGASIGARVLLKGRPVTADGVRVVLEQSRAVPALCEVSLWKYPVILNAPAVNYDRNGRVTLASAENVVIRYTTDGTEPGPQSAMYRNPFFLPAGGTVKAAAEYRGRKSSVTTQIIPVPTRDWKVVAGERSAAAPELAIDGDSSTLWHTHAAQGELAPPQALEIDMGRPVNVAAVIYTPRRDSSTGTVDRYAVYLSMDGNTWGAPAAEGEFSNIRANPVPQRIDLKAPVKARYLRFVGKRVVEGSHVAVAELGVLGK

- IC50 (AmGH29C): < 54 µM
- IC50 (AmGH29D): < 54 µM
Compound: C[C@@H]1NC[C@@H](O)[C@H](O)[C@@H]1O [DFJ, 1-Deoxyfuconojirimycin]
